Source: PubChem BioAssay (NCI)
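A five-concentration, 48-hour dose response in 96-well plates underlies each endpoint, interpolated linearly between surrounding concentrations. GI50 = concentration required for 50% inhibition of growth. TGI: concentration producing complete growth inhibition.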

What was measured:
Test in all cases: DTP human tumour cell line panel, 48 h
HCC-2998 colon = test system: HCC-2998 colon
CCRF-CEM leukemia = test system: CCRF-CEM leukemia
HOP-92 NSCLC = test system: HOP-92 NSCLC
SF-295 CNS = test system: SF-295 CNS
TK-10 renal = test system: TK-10 renal
SF-539 CNS = test system: SF-539 CNS
A549 NSCLC = test system: A549 NSCLC
UACC-62 melanoma = test system: UACC-62 melanoma
UO-31 renal = test system: UO-31 renal
SK-OV-3 ovarian = test system: SK-OV-3 ovarian

| Compound | GI50 (HCC-2998 colon) | TGI (HCC-2998 colon) | GI50 (CCRF-CEM leukemia) | TGI (CCRF-CEM leukemia) | GI50 (HOP-92 NSCLC) | TGI (HOP-92 NSCLC) | GI50 (SF-295 CNS) | TGI (SF-295 CNS) | GI50 (TK-10 renal) | TGI (TK-10 renal) | GI50 (SF-539 CNS) | TGI (SF-539 CNS) | GI50 (A549 NSCLC) | TGI (A549 NSCLC) | GI50 (UACC-62 melanoma) | TGI (UACC-62 melanoma) | GI50 (UO-31 renal) | TGI (UO-31 renal) | GI50 (SK-OV-3 ovarian) | TGI (SK-OV-3 ovarian) |
| --- | --- | --- | --- | --- | --- | --- | --- | --- | --- | --- | --- | --- | --- | --- | --- | --- | --- | --- | --- | --- |
| O=C(O)CCC/C=C\C[C@H]1C=CC(=O)/C1=C/C[C@@H](O)CCc1cccc(C(F)(F)F)c1 | 1.87 µM | 3.5 µM | 0.465 µM | 10.8 µM | 3.32 µM | 8.2 µM | 2.5 µM | 6.09 µM | 4.21 µM | 9.82 µM | 2.46 µM | 6.57 µM | 3.2 µM | 9.76 µM | 2.29 µM | 6.94 µM | 1.68 µM | 3.16 µM | 5.66 µM | 18.3 µM |
| O=c1cc(-c2ccccc2)oc2cc(O)cc(O)c12 | – | 38.6 µM | – | 59.6 µM | – | 38.7 µM | – | 37.6 µM | – | 72.9 µM | – | 31.3 µM | – | > 100 µM | – | 76.5 µM | – | 43.5 µM | – | 67 µM |
| CC(=O)N1c2ccccc2NC2=C(C(=O)N(Cc3ccccc3)C2(C)C)C1c1ccco1 (stereo not given) | 0.608 µM | > 7.95 µM | 0.258 µM | > 25 µM | 1.02 µM | > 25 µM | 0.766 µM | > 6.83 µM | 6.14 µM | > 25 µM | 0.395 µM | 1.17 µM | 1.03 µM | > 25 µM | 0.373 µM | > 25 µM | 1.23 µM | > 25 µM | 0.786 µM | > 25 µM |
| CN(CC#N)C1CCCC[C@H]1O (stereo not given in full) | – | > 100 µM | – | > 100 µM | – | > 100 µM | – | > 100 µM | – | > 100 µM | – | > 100 µM | – | > 100 µM | – | > 100 µM | – | > 100 µM | – | > 100 µM |
| CS(=O)(=O)Nc1cccc(-c2cc(-c3ccccc3Cl)c(C#N)c(N)n2)c1 | 1.36 µM | 8.52 µM | 0.562 µM | > 82.4 µM | 1.11 µM | 16 µM | 0.411 µM | 12.9 µM | 1.15 µM | 18.5 µM | 0.361 µM | 2.72 µM | 0.655 µM | 16.6 µM | 0.51 µM | 15.5 µM | 0.984 µM | 17.4 µM | 0.737 µM | 13.8 µM |
| CN1CCN(c2cc(C(=O)Nc3cc4cc(-c5cnn(C)c5)ccc4cn3)ccn2)CC1 | 0.276 µM | 4.57 µM | 0.155 µM | > 39.2 µM | 0.16 µM | 3.6 µM | 0.306 µM | 13.2 µM | 0.202 µM | 11.4 µM | 0.153 µM | 2.38 µM | 0.0432 µM | 11.4 µM | 0.192 µM | 0.646 µM | 0.122 µM | 0.532 µM | 0.0631 µM | 2.44 µM |
| CN(C)CCSc1cccc(-c2cc(-c3cccc(SCCN(C)C)c3)nc(SCCN(C)C)n2)c1 | – | 7.76 µM | – | 4.8 µM | – | 6.87 µM | – | 3.52 µM | – | 9.65 µM | – | 3.19 µM | – | 3.47 µM | – | 32 µM | – | 27.9 µM | – | 45.5 µM |
| C#CCN(N=O)C(=O)NC(CCCNC(=O)OCc1ccccc1)C(=O)OCc1ccccc1 (stereo not given) | – | > 100 µM | – | 52 µM | – | 96.3 µM | – | > 100 µM | – | > 100 µM | – | > 100 µM | – | > 100 µM | – | > 100 µM | – | > 100 µM | – | > 100 µM |
| COC(=O)Nc1nc2ccc(C(=O)c3ccc(N(C)C4COC4)cc3)cc2[nH]1 | 0.716 µM | > 100 µM | 0.309 µM | > 100 µM | 0.62 µM | 45.9 µM | 0.28 µM | > 100 µM | 31.3 µM | > 100 µM | 0.264 µM | 1.16 µM | 0.655 µM | > 100 µM | 0.38 µM | > 100 µM | 0.883 µM | > 100 µM | 0.536 µM | > 100 µM |
| O=C(/C=C/C=C/c1c(C2CC2)nc2ccccc2c1-c1ccc(F)cc1)c1cccs1 | 1.99 µM | 4.95 µM | 1.37 µM | > 100 µM | 1.83 µM | 8.6 µM | 1.95 µM | 5.97 µM | 4.58 µM | 32.9 µM | 2.39 µM | 6.65 µM | 3.72 µM | > 100 µM | 1.46 µM | 6.64 µM | 1.16 µM | 3.05 µM | 9.44 µM | > 100 µM |
| O/N=C1/C(=C/c2ccc(Oc3ccccc3)cc2)CCCC1C(NO)c1ccc(Oc2ccccc2)cc1 (stereo not given) | – | > 100 µM | – | 61.2 µM | – | 56.3 µM | – | > 100 µM | – | > 100 µM | – | > 100 µM | – | > 100 µM | – | > 100 µM | – | 76.4 µM | – | > 100 µM |
